# Experimental data from patent US20220096450A1, “Compounds and Methods for Treating or Preventing Heart Failure” (DREXEL UNIVERSITY, priority 2019, published 2022).
# Molecular target: SQOR (Homo sapiens, UniProt Q9Y6N5)
# Experiment: DCIP endpoint assay of SQOR activity
# Format: biochemical
# Conditions: Table 2, SAR of Set C; read-out: IC50
# Experimental: The assay is based on the ability of reduced CoQ1, which is produced in the SQOR reaction, to nonenzymically reduce 2,6-dichloroindiphenol (DCIP) (Δεox-red=20 mM−1 cm−1 at 600 nm). Reaction mixtures containing SQOR, substrates (H2S, sulfite, CoQ1) and various concentrations of an inhibitor are incubated in 96-well plates for 60 s. The reactions are quenched by addition of formaldehyde and N-ethylmaleimide to denature SQOR and consume unreacted H2S, respectively, and are then incubated for 10 min prior to addition of DCIP. The absorbance at 600 nm is read 30 s after DCIP addition by using a BioTek Synergy 2 plate reader.
# Sequence of SQOR (Q9Y6N5 whole entry): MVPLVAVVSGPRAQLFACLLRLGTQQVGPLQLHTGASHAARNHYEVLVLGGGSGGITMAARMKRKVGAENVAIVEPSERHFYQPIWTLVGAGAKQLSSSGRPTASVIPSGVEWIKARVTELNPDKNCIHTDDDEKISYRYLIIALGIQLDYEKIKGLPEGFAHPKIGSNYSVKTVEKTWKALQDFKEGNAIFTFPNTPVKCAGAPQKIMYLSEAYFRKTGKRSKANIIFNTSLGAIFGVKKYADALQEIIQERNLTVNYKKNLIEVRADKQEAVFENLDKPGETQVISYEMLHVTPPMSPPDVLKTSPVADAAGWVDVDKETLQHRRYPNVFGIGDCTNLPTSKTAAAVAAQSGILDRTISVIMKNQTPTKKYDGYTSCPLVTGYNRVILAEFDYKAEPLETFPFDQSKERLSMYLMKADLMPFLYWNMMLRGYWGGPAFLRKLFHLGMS
row,IC50,SMILES
1,152 nM,"Cc1cc([N+](=O)[O-])c(S(=O)(=O)c2ccccc2)cc1C(=O)c1ccccc1 [Compound 33, (2-methyl-4-nitro-5-(phenylsulfonyl)phenyl)(phenyl)methanone]"
2,4900 nM,"COc1ccc(Sc2ccc(C)cc2)c([N+](=O)[O-])c1 [Compound 34, (4-methoxy-2-nitrophenyl)(p-tolyl)sulfane]"

# Same assay, conditions: Table 3; read-out: IC50
row,SMILES,IC50
1,CCOC(=O)N1CCN(CCOc2nc(-c3ncccc3C)cc(-c3ccc(F)cc3)c2C#N)CC1 [Ethyl 4-(2-(3-cyano-4-(4-fluorophenyl)-6-(3-methylpyridin-2-yl)pyridin-2-yloxy)ethyl)piperazine-1-carboxylate],230 nM
2,Cc1cccnc1-c1cc(-c2ccc(F)cc2)c(C#N)c(OCCN2CCN(C(=O)OC(C)C)CC2)n1 [Isopropyl 4-(2-(3-cyano-4-(4-fluorophenyl)-6-(3-methylpyridin-2-yl)pyridin-2-yloxy)ethyl)piperazine-1-carboxylate],120 nM
3,Cc1cccnc1-c1cc(-c2ccc(F)cc2)c(C#N)c(OCCN2CCN(C(=O)OC(C)(C)C)CC2)n1 [tert-Butyl 4-(2-(3-cyano-4-(4-fluorophenyl)-6-(3-methylpyridin-2-yl)pyridin-2-yloxy)ethyl)piperazine-1-carboxylate],43 nM

# More lines, now with the values ahead:
row,IC50,SMILES
1,96 nM,COC(=O)COCCOc1nc(-c2ncccc2C)cc(-c2ccc(F)cc2)c1C#N [Methyl 2-(3-cyano-4-(4-fluorophenyl)-6-(3-methylpyridin-2-yl)pyridin-2-yloxy) 2-(2-methoxyethoxy) acetate]
2,540 nM,COC(=O)N1CCN(CCOc2nc(-c3ncccc3C)cc(-c3ccc(F)cc3)c2C#N)CC1 [Methyl 4-(2-(3-cyano-4-(4-fluorophenyl)-6-(3-methylpyridin-2-yl)pyridin-2-yloxy)ethyl)piperazine-1-carboxylate]
3,1900 nM,CC(=O)NCCOc1nc(-c2ccccn2)cc(-c2ccc(F)cc2)c1C#N [N-(2-(3-Cyano-4-(4-fluorophenyl)-6-(pyridin-2-yl)pyridin-2-yloxy)ethyl)acetamide]
